Source: ChEMBL document CHEMBL5346978, “Exploration of Tetrahydroisoquinoline- and Benzo[c]azepine-Based Sphingosine 1-Phosphate Receptor 1 Agonists for the Treatment of Multiple Sclerosis” (J Med Chem, 2023)

Experiments:
[1] = molecular target: T1, Sphingosine 1-phosphate receptor 1 (Homo sapiens, UniProt P21453); assay: Agonist activity at S1P1 (unknown origin) expressed in human HEK293/Galpha15 cells assessed as Ca2+ activation measured for 2 hrs by FLIPR analysis; format: functional, cell-based
T1 sequence (P21453 whole entry): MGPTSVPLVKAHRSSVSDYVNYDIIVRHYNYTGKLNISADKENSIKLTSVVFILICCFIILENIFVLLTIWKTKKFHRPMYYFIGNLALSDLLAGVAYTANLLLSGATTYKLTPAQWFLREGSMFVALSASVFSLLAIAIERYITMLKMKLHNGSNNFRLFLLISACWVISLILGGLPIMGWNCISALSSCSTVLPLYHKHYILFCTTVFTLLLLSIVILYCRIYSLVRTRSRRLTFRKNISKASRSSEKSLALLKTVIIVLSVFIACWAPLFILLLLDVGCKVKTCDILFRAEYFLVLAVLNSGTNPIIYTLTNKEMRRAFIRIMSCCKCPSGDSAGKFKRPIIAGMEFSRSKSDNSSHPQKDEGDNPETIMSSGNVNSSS

[2] = molecular target: T1, Sphingosine 1-phosphate receptor 1; assay: Agonist activity at S1P1 (unknown origin) expressed in human HEK293/Galpha15 cells assessed as Ca2+ activation at 1 uM measured for 2 hrs by FLIPR analysis relative to control; format: functional, cell-based
[3] = molecular target: T1, Sphingosine 1-phosphate receptor 1; assay: Agonist activity at S1P1 (unknown origin) expressed in PathHunter CHO-K1 EDG1 beta-arrestin cells assessed as beta-arrestin2 recruitment incubated for 90 mins by chemiluminescence based assay; format: functional, cell-based
[4] = molecular target: T1, Sphingosine 1-phosphate receptor 1; assay: Agonist activity at S1P1 (unknown origin) expressed in PathHunter CHO-K1 EDG1 beta-arrestin cells assessed as beta-arrestin2 recruitment at 1 uM incubated for 90 mins by chemiluminescence based assay relative to control; format: functional, cell-based
[5] = molecular target: CYP2D6 (Homo sapiens, UniProt P10635); assay: Inhibition of CYP2D6 in human liver microsomes using dextromethorphan as substrate assessed as residual activity at 10 uM preincubated for 5 mins followed by substrate addition and measured after 15 mins in presence of NADPH by LC-MS/MS analysis; format: ADME, Microsome; settings: probe dextromethorphan, time 20 min, read-out: Activity
Sequence of CYP2D6 (P10635 whole entry): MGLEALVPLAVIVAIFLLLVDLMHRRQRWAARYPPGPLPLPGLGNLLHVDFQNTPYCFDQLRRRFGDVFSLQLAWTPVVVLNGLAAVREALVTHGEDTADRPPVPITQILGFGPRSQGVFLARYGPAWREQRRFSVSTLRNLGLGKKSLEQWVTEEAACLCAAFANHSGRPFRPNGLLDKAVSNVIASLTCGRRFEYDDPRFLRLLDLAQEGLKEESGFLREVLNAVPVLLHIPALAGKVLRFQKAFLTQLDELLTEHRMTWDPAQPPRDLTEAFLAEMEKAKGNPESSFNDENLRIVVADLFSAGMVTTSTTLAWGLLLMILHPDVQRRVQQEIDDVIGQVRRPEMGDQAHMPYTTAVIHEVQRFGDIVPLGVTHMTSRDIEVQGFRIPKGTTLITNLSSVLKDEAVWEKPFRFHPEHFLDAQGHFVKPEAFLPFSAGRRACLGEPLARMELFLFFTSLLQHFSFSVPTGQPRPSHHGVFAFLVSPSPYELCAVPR

[6] = molecular target: CYP2C9 (Homo sapiens, UniProt P11712); assay: Inhibition of CYP2C9 in human liver microsomes using diclofenac as substrate assessed as residual activity at 10 uM preincubated for 5 mins followed by substrate addition and measured after 15 mins in presence of NADPH by LC-MS/MS analysis; format: ADME, Microsome; settings: probe diclofenac, time 20 min, read-out: Activity
Sequence of CYP2C9 (P11712 whole entry): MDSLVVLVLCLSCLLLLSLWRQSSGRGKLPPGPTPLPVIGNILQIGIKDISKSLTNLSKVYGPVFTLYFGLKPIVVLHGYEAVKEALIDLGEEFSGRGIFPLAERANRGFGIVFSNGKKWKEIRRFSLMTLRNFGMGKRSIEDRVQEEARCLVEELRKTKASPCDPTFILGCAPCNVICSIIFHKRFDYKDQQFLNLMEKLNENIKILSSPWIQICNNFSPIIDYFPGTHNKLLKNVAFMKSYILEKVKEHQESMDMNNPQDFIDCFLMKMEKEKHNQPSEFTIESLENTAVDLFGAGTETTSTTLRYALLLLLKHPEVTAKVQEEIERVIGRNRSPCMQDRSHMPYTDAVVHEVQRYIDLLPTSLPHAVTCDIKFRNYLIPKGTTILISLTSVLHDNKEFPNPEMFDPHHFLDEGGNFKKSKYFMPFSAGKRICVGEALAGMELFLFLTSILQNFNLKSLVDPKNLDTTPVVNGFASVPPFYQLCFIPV

[7] = molecular target: T2, CYP1A2 (Homo sapiens, UniProt P05177); assay: Inhibition of CYP1A2 in human liver microsomes using phenacetin as substrate assessed as residual activity at 10 uM preincubated for 5 mins followed by substrate addition and measured after 15 mins in presence of NADPH by LC-MS/MS analysis; format: ADME, Microsome; settings: probe phenacetin, time 20 min, read-out: Activity
T2 sequence (P05177 whole entry): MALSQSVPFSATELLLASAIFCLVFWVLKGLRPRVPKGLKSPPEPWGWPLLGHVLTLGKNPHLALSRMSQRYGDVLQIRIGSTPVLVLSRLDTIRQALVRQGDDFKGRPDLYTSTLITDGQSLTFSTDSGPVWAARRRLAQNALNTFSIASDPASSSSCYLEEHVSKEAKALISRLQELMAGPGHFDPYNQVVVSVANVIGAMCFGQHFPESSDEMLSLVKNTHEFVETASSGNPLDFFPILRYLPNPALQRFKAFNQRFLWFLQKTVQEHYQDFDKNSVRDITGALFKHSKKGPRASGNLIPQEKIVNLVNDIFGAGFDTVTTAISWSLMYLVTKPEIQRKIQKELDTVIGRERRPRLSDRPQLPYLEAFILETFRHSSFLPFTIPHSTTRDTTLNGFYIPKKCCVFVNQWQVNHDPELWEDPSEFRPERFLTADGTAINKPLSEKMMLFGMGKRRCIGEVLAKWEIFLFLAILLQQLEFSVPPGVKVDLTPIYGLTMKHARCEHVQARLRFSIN

[8] = Microsomal stability in mouse liver microsomes assessed as parent compound remaining preincubated for 5 mins followed by NADPH addition measured after 60 mins by LC-MS/MS analysis; format: ADME, Microsome; settings: time 65 min, read-out: Stability
[9] = molecular target: CYP3A4 (Homo sapiens, UniProt P08684); assay: Inhibition of CYP3A4 in human liver microsomes using midazolam as substrate assessed as residual activity at 10 uM preincubated for 5 mins followed by substrate addition and measured after 15 mins in presence of NADPH by LC-MS/MS analysis; format: ADME, Microsome; settings: probe midazolam, time 20 min, read-out: Activity
Sequence of CYP3A4 (P08684 whole entry): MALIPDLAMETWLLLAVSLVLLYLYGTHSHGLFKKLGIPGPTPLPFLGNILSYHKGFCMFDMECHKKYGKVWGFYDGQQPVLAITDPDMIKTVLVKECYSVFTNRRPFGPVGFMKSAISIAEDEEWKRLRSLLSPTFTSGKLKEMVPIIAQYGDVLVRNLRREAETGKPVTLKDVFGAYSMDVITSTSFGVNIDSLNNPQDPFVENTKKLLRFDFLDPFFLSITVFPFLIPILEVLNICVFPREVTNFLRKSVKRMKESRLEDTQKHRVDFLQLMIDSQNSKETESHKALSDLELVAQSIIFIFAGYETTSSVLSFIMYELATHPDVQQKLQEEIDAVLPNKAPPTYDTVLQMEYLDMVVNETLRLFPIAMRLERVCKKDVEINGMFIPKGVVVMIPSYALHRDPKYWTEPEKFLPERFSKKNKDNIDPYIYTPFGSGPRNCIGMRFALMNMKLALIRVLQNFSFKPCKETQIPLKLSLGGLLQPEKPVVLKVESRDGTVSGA

[10] = Microsomal stability in rat liver microsomes assessed as parent compound remaining preincubated for 5 mins followed by NADPH addition measured after 60 mins by LC-MS/MS analysis; format: ADME, Microsome; settings: time 65 min, read-out: Stability
[11] = Microsomal stability in mouse liver microsomes assessed as parent compound remaining preincubated for 5 mins followed by NADPH addition measured after 30 mins by LC-MS/MS analysis; format: ADME, Microsome; settings: time 35 min, read-out: Stability
[12] = Microsomal stability in human liver microsomes assessed as parent compound remaining preincubated for 5 mins followed by NADPH addition measured after 30 mins by LC-MS/MS analysis; format: ADME, Microsome; settings: time 35 min, read-out: Stability

| SMILES | EC50 [3] [nM] | Activity ([4]; filed as agonist) [%] | Activity [2] [%] | Activity [4] [%] | other results |
| --- | --- | --- | --- | --- | --- |
| CC(=O)NCCCC(=O)N1CCc2cc(OCc3ccc(OC(C)C)c(C#N)c3)ccc2C1 | 424 | 105 |  |  | EC50 [1]: 1260 nM; Activity ([2]; filed as agonist): 55% |
| CNC(=O)CCC(=O)N1CCc2cc(OCc3ccc(OC(C)C)c(C#N)c3)ccc2C1 | 1470 | 82 | 39 |  |  |
| COC(=O)CCS(=O)(=O)N1CCc2cc(NC(=O)c3ccc(OC(C)C)c(C#N)c3)ccc2C1 |  |  | 7 | 7 |  |
| CC(C)Oc1ccc(COc2ccc3c(c2)OCCN(S(=O)(=O)CCO)C3)cc1C#N | 22.3 | 96 |  |  | EC50 [1]: 674 nM; Activity ([2]; filed as agonist): 65% |
| COC(=O)CCS(=O)(=O)N1CCc2cc(OCc3ccc(OC(C)C)c(C#N)c3)ccc2C1 | 59.9 | 103 | 9 |  |  |
| COC(=O)CCS(=O)(=O)N1CCc2cc(N(C)Cc3ccc(OC(C)C)c(C#N)c3)ccc2C1 |  |  | 12 | 5 |  |
| CC(C)Oc1ccc(COc2ccc3c(c2)OCCN(S(=O)(=O)CCC(=O)O)C3)cc1C#N | 28.6 | 109 |  |  | activity at 0.25 h, 10 µM [5]: 73.6%; activity at 0.25 h, 10 µM [6]: 70.7%; activity at 0.25 h, 10 µM [7]: 71.2%; EC50 [1]: 68 nM; remaining at 1 h [8]: 90.5%; activity at 0.25 h, 10 µM [9]: 68.8%; Activity ([2]; filed as agonist): 83%; remaining at 1 h [10]: 92.9% |
| CC(C)Oc1ccc(COc2cccc3c2CCN(S(=O)(=O)CCCO)C3)cc1C#N |  |  | 3 | 1 |  |
| COC(=O)CS(=O)(=O)N1CCc2cc(OCc3ccc(OC(C)C)c(C#N)c3)ccc2C1 | 279 | 89 | 6 |  |  |
| CC(C)Oc1ccc(COc2ccc3c(c2)CN(CCC(=O)O)CC3)cc1C#N |  |  | 1 | 2 |  |
| CC(C)Oc1ccc(COc2ccc3c(c2)CN(S(=O)(=O)CCCO)CC3)cc1C#N |  |  | 3 | 7 |  |
| CC(C)Oc1ccc(COc2ccc3c(c2)CCN(C(=O)CCC(=O)O)C3C)cc1C#N (configuration not stated) |  | 40 |  |  | EC50 [1]: 951 nM; Activity ([2]; filed as agonist): 57% |
| CC(C)Oc1ccc(COc2ccc3c(c2)CCN(C(=O)CCCNS(C)(=O)=O)C3)cc1C#N | 743 | 68 | 6 |  |  |
| CC(C)Oc1ccc(COc2ccc3c(c2)CCN(C(=O)CCC(N)=O)C3)cc1C#N | 109 | 91 |  |  | EC50 [1]: 2260 nM; Activity ([2]; filed as agonist): 47% |
| CC(C)Oc1ccc(C(=O)Nc2ccc3c(c2)CCN(S(=O)(=O)CCC(=O)O)C3)cc1C#N |  |  | 18 | 15 |  |
| CC(C)Oc1ccc(COc2ccc3c(c2)CN(S(=O)(=O)CCC(=O)O)CCC3)cc1C#N |  |  | 8 | 0 |  |
| CC(C)Oc1ccc(COc2cccc3c2CCN(S(=O)(=O)CCC(=O)O)C3)cc1C#N |  |  | 4 | 1 |  |
| CC(C)Oc1ccc(COc2ccc3c(c2)CCN(CCO)C3)cc1C#N |  |  | 7 | 32 |  |
| CC(C)Oc1ccc(COc2ccc3c(c2)CCN(C(=O)CC(=O)O)C3)cc1C#N |  | 42 |  |  | EC50 [1]: 788 nM; Activity ([2]; filed as agonist): 64% |
| CC(C)Oc1ccc(COc2ccc3c(c2)CCN(S(=O)(=O)CCCO)C3C)cc1C#N (configuration not stated) |  | 45 | 12 |  |  |
| CC(C)Oc1ccc(COc2ccc3c(c2)CCN(CCC(=O)O)C3C)cc1C#N (configuration not stated) | 105 | 74 |  |  | EC50 [1]: 524 nM; Activity ([2]; filed as agonist): 69% |
| CC(C)Oc1ccc(COc2ccc3c(c2)CCN(S(=O)(=O)CC(=O)O)C3)cc1C#N | 162 | 92 |  |  | EC50 [1]: 89 nM; Activity ([2]; filed as agonist): 85% |
| CC(C)Oc1ccc(COc2ccc3c(c2)CCN(CCCC(=O)O)C3)cc1C#N | 98.2 | 91 |  |  | EC50 [1]: 97.1 nM; Activity ([2]; filed as agonist): 79% |
| COC(=O)CCS(=O)(=O)N1CCc2cc(Nc3ccc(OC(C)C)c(C#N)c3)ccc2C1 |  |  | 5 | 3 |  |

| SMILES | EC50 [3] [nM] | Activity ([4]; filed as agonist) [%] | Activity [2] [%] | Activity [4] [%] | other results |
| --- | --- | --- | --- | --- | --- |
| CC(C)Oc1ccc(COc2cccc3c2CCN(CCC(=O)O)C3)cc1C#N |  |  | 6 | 2 |  |
| CC(=O)NCCC(=O)N1CCc2cc(OCc3ccc(OC(C)C)c(C#N)c3)ccc2C1 | 276 | 117 |  |  | EC50 [1]: 1720 nM; Activity ([2]; filed as agonist): 41%; remaining at 0.5 h [11]: 14.9%; remaining at 0.5 h [12]: 29.7% |
| CC(C)Oc1ccc(COc2ccc3c(c2)CCN(CCCCO)C3)cc1C#N |  |  | 3 | 24 |  |
| CC(C)Oc1ccc(COc2ccc3c(n2)CCN(C(=O)CCC(=O)O)C3)cc1C#N |  |  | 14 | 26 |  |
| COC(=O)CCCN1CCc2cc(OCc3ccc(OC(C)C)c(C#N)c3)ccc2C1 | 154 | 91 | 7 |  |  |
| CC(C)Oc1ccc(COc2ccc3c(c2)CCCN(CCC(=O)O)C3)cc1C#N |  |  | 3 | 2 |  |
| COC(=O)CCS(=O)(=O)N1CCc2cc(NCc3ccc(OC(C)C)c(C#N)c3)ccc2C1 |  |  | 13 | 26 |  |
| COC(=O)CCN1CCc2cc(OCc3ccc(OC(C)C)c(C#N)c3)ccc2C1 | 331 | 91 |  |  | Activity ([2]; filed as agonist): 40% |
| COC(=O)CN1CCc2cc(OCc3ccc(OC(C)C)c(C#N)c3)ccc2C1 |  |  | 13 | 32 |  |
| CC(C)Oc1ccc(COc2ccc3c(c2)CN(S(=O)(=O)CCC(=O)O)CC3)cc1C#N |  |  | 3 | 4 |  |
| CC(C)Oc1ccc(COc2ccc3c(c2)CCN(S(=O)(=O)CCCO)C3)cc1C#N | 496 | 72 | 6 |  |  |
| CC(C)Oc1ccc(COc2ccc3c(n2)CCN(S(=O)(=O)CCCO)C3)cc1C#N | 346 | 118 | 10 |  |  |
| CC(C)Oc1ccc(COc2ccc3c(c2)CCN(S(=O)(=O)CCC(=O)O)CC3)cc1C#N |  |  | 9 | 25 |  |
| CC(C)Oc1ccc(COc2ccc3c(c2)CCN(CC(=O)O)C3)cc1C#N | 695 | 67 |  |  | EC50 [1]: 1.06 nM; Activity ([2]; filed as agonist): 56% |
| CC(C)Oc1ccc(COc2ccc3c(c2)CCCN3S(=O)(=O)CCCO)cc1C#N |  |  | 3 | 35 |  |
| CC(C)Oc1ccc(COc2ccc3c(c2)CCN(S(=O)(=O)CCO)C3)cc1C#N | 191 | 88 |  |  | Activity ([2]; filed as agonist): 44% |
| CC(C)Oc1ccc(COc2ccc3c(c2)CCN(CCCO)C3)cc1C#N |  |  | 5 | 30 |  |
| CC(C)Oc1ccc(COc2ccc3c(c2)OCCN(CCC(=O)O)C3)cc1C#N |  |  | 14 | 24 |  |
| CC(C)Oc1ccc(COc2ccc3c(c2)CCN(C(C)C(=O)O)C3)cc1C#N (configuration not stated) |  |  | 10 | 18 |  |
| CC(C)Oc1ccc(COc2ccc3c(c2)CCN(C(=O)CCO)C3)cc1C#N | 184 | 88 | 36 |  |  |
| CC(C)Oc1ccc(COc2ccc3c(c2)CN(CCC(=O)O)CCC3)cc1C#N |  |  | 13 | 6 |  |
| CC(C)Oc1ccc(COc2ccc3c(c2)CCN(S(=O)(=O)CC(=O)O)C3C)cc1C#N (configuration not stated) |  |  | 21 | 17 |  |
| CC(C)Oc1ccc(COc2ccc3c(c2)CCN(CCC(=O)O)C3)cc1C#N | 193 | 98 |  |  | activity at 0.25 h, 10 µM [5]: 95.4%; activity at 0.25 h, 10 µM [6]: 92.2%; activity at 0.25 h, 10 µM [7]: 85.1%; EC50 [1]: 247 nM; activity at 0.25 h, 10 µM [9]: 90.2%; Activity ([2]; filed as agonist): 82%; remaining at 0.5 h [11]: 98.7%; remaining at 0.5 h [12]: 99% |
| CC(C)Oc1ccc(CN(C)c2ccc3c(c2)CCN(S(=O)(=O)CCC(=O)O)C3)cc1C#N |  |  | 8 | 9 |  |
